As a reminder, the IC50 is the concentration at which inhibition is half-maximal. Lower therefore signals greater potency in that assay.

One assay concerns the target hOX1R (Homo sapiens, UniProt O43613). As to the kind of experiment: hOX1R FLIPR Ca2+ flux assay. The format is cell-based. The conditions noted are these: CHO cells expressing the receptor; agonist 70 pM Ala-6,12 human orexin-A.
For a further assay, the target named is human orexin-2 receptor (Homo sapiens (Human), UniProt O43614). As to the kind of experiment: hOX2R FLIPR Ca2+ flux assay. The format is cell-based. The note with it: CHO cells expressing the receptor; agonist 70 pM Ala-6,12 human orexin-A. The protocol: In a typical experiment the OX1 and OX2 receptor antagonistic activity of the compounds of the present invention was determined in accordance with the following experimental method. For intracellular calcium measurements, Chinese hamster ovary (CHO) cells expressing the rat orexin-1 receptor or the human orexin-2 receptor, are grown in Iscove's modified DMEM containing 2 mM L-glutamine, […], 1% hypoxanthine-thymidine supplement, 100 U/ml penicillin, 100 μg/ml streptomycin and 10% heat-inactivated fetal calf serum (FCS). The cells are seeded at 20,000 cells/well into Becton-Dickinson black 384-well clear bottom sterile plates coated with poly-D-lysine. All reagents were from GIBCO-Invitrogen Corp. The seeded plates are incubated overnight at 37° C. and 5% CO2. Ala-6,12 human orexin-A as the agonist is prepared as a 1 mM stock solution in 1% bovine serum albumin (BSA) and diluted in assay buffer (HBSS containing 20 mM HEPES, 0.1% BSA and 2.5 mM probenecid, pH7.4) for use in the assay at a final concentration of 70 pM. Test compounds are prepared as 10 mM stock solution in DMSO, then diluted in 384-well plates, first in DMSO, then assay buffer. On the day of the assay, cells are washed 3 times with 100 μl assay buffer and then incubated for 60 min (37° C., 5% CO2) in 60 μl assay buffer containing 1 μM Fluo-4AM ester, 0.02% pluronic acid, and 1% BSA. The dye loading solution is then aspirated and cells are washed 3 times with 100 μl assay buffer. 30 μl of that same buffer is left in each well. Within the Fluorescent Imaging Plate Reader (FLIPR, Molecular Devices), test compounds are added to the plate in a volume of 25 μl, incubated for 5 min and finally 25 μl of agonist is added. Fluorescence is measured for each well at 1 second intervals for 5 minutes and the height of each fluorescence peak is compared to the height of the fluorescence peak induced by 70 pM Ala-6,12 orexin-A with buffer in place of antagonist. […] Alternatively, compound potency can be assessed by a radioligand binding assay (described in Bergman et. al. Bioorg. Med. Chem. Lett. 2008, 18, 1425-1430) in which the inhibition constant (Ki) is determined in membranes prepared from CHO cells expressing either the OX1 or OX2 receptor. The intrinsic orexin receptor antagonist activity of a compound which may be used in the present invention may be determined by these assays.
human orexin-2 receptor, sequence (O43614 whole entry): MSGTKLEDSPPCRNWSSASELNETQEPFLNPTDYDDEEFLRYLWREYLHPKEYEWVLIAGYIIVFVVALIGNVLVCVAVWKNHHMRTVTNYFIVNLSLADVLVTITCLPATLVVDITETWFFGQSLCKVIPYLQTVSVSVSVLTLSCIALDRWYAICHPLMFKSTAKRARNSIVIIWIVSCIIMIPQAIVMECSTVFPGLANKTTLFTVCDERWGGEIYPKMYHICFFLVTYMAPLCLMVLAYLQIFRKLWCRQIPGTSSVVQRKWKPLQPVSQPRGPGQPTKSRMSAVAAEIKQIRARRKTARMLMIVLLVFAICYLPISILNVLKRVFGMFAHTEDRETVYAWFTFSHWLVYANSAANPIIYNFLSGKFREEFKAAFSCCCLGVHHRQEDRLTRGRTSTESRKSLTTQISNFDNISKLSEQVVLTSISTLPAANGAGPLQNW
On the technique in general: Calcium flux is commonly read through the fluorescence of an indicator in the cells.

Take `COC(=O)c1nc(N2CC[C@H]3CCN(C(=O)c4ccccc4-n4nccn4)C[C@H]32)sc1C` (stereo in doubt) [Example B12, methyl 2-((3aR, 7aS)-6-(2-(2H-1,2,3-triazol-2-yl)benzoyl)octahydro-1H-pyrrolo[2,3-c]pyridin-1-yl)-5-methylthiazole-4-carboxylate]: the IC50 at hOX1R is 10 µM; on human orexin-2 receptor, 1.34 µM.

In the case of `N#Cc1ccnc(N2CC[C@H]3CCN(C(=O)c4ccccc4-n4ncnn4)C[C@H]32)c1` (stereo in doubt) [Example D2, 2-((3aS, 7aS)-6-(2-(2H-tetrazol-2-yl)benzoyl)octahydro-1H-pyrrolo[2,3-c]pyridin-1-yl)isonicotinonitrile], the IC50 on hOX1R was found to be 10 µM; on human orexin-2 receptor, 0.11 µM.

For the compound `N#Cc1ccnc(N2CC[C@H]3CCN(C(=O)c4ccccc4OC(F)(F)F)C[C@H]32)c1` (stereo in doubt) [Example D3, 2-((3aS, 7aS)-6-(2-(trifluoromethoxy)benzoyl)octahydro-1H-pyrrolo[2,3-c]pyridin-1-yl)isonicotinonitrile], the IC50 came to 10 µM on hOX1R and 0.0791 µM at human orexin-2 receptor.

In the case of `N#Cc1ccnc(N2CC[C@H]3CCN(C(=O)c4nccnc4-c4ccccn4)C[C@H]32)c1` (stereo in doubt) [Example D4, 2-((3aS, 7aS)-6-(3-(pyridin-2-yl)pyrazine-2-carbonyl)octahydro-1H-pyrrolo[2,3-c]pyridin-1-yl)isonicotinonitrile], the IC50 on hOX1R is not below 10 µM; at human orexin-2 receptor, 0.328 µM.

As for `N#Cc1ccnc(N2CC[C@H]3CCN(C(=O)c4cccnc4-n4cccn4)C[C@H]32)c1` (stereo in doubt) [Example D5, 2-((3aS, 7aS)-6-(2-(1H-pyrazol-1-yl)nicotinoyl)octahydro-1H-pyrrolo[2,3-c]pyridin-1-yl)isonicotinonitrile], the IC50 on hOX1R came to 10 µM; on human orexin-2 receptor, 0.037 µM.

As to `N#Cc1ccnc(N2CC[C@H]3CCN(C(=O)c4nccnc4-n4cccn4)C[C@H]32)c1` (stereo in doubt) [Example D6, 2-((3aS, 7aS)-6-(3-(1H-pyrazol-1-yl)pyrazine-2-carbonyl)octahydro-1H-pyrrolo[2,3-c]pyridin-1-yl)isonicotinonitrile], the IC50 on hOX1R came to 10 µM; on human orexin-2 receptor, 0.117 µM.

For `N#Cc1ccnc(N2CC[C@H]3CCN(C(=O)c4ccccc4-n4nccn4)C[C@H]32)c1` [Example A1, 2-((3aS,7aS)-6-(2-(2H-1,2,3-triazol-2-yl)benzoyl)octahydro-1H-pyrrolo[2,3-c]pyridin-1-yl)isonicotinonitrile], the IC50 was determined as 10 µM on hOX1R and 0.0405 µM on human orexin-2 receptor.

With `Cc1cc(C)nc(N2CC[C@@H]3CCN(C(=O)c4ccccc4-n4nccn4)C[C@@H]32)n1` [Example A2, (2-(2H-1,2,3-triazol-2-yl)phenyl)((3aR, 7aR)-1-(4,6-dimethylpyrimidin-2-yl)hyexahydro-1H-pyrrolo[2,3-c]pyridin-6(2H)-yl)methanone], the IC50 at hOX1R was 10 µM; at human orexin-2 receptor, 0.163 µM.

For the compound `N#Cc1ccnc(N2CC[C@@H]3CCN(C(=O)c4ccccc4-n4nccn4)C[C@@H]32)n1` [Example A3, 2-((3aR, 7aR)-6-(2-(2H-1,2,3-triazol-2-yl)benzoyl)octahydro-1H-pyrrolo[2,3-c]pyridin-1-yl)pyrimidine-4-carbonitrile], the results for the IC50 at hOX1R and at human orexin-2 receptor were 10 µM and 0.943 µM, respectively.

Turning to `Cc1cc(C#N)nc(N2CC[C@@H]3CCN(C(=O)c4ccccc4-n4nccn4)C[C@@H]32)n1` [Example A4, 2-((3aR, 7aR)-6-(2-(2H-1,2,3-triazol-2-yl)benzoyl)octahydro-1H-pyrrolo[2,3-c]pyridin-1-yl)-6-methylpyrimidine-4-carbonitrile], the IC50 on hOX1R and at human orexin-2 receptor was 10 µM throughout.

For the compound `COc1cc(OC)nc(N2CC[C@@H]3CCN(C(=O)c4ccccc4-n4nccn4)C[C@@H]32)n1` [Example A5, (2-(2H-1,2,3-triazol-2-yl)phenyl)((3aR, 7aR)-1-(4,6-dimethoxypyrimidin-2-yl)hexahydro-1H-pyrrolo[2,3-c]pyridin-6(2H)-yl)methanone], the values for the IC50 on hOX1R and at human orexin-2 receptor were 10 µM and 2.1 µM, respectively.

Regarding `O=C(c1ccccc1-n1nccn1)N1CC[C@H]2CCN(c3ncccn3)[C@H]2C1` [Example A6], the IC50 on hOX1R amounted to 10 µM; on human orexin-2 receptor it was 6.08 µM.

For the compound `COC(=O)c1ccnc(N2CC[C@@H]3CCN(C(=O)c4ccccc4-n4nccn4)C[C@@H]32)c1` [Example A8], the IC50 on hOX1R and at human orexin-2 receptor was not below 10 µM throughout.

As for `COc1cc(N2CC[C@@H]3CCN(C(=O)c4ccccc4-n4nccn4)C[C@@H]32)ncc1C#N` [Example A9], the figures for the IC50 on hOX1R and on human orexin-2 receptor were not below 10 µM and 2.64 µM, respectively.

In the case of `O=C(c1ccccc1-n1nccn1)N1CC[C@H]2CCN(c3ccc(-n4ccnc4)nn3)[C@H]2C1` [Example A10, (3aR, 7aR)-(1-(6-(1H-imidazol-1-yl)pyridazin-3-yl)hexahydro-1H-pyrrolo[2,3-c]pyridin-6(2H)-yl)(2-(2H-1,2,3-triazol-2-yl)phenyl)methanone], the IC50 on hOX1R and at human orexin-2 receptor was 10 µM each time.

With `Cc1ccc(C)n1-c1ccc(N2CC[C@@H]3CCN(C(=O)c4ccccc4-n4nccn4)C[C@@H]32)nn1` [Example A11, (2-(2H-1,2,3-triazol-2-yl)phenyl)((3aR, 7aR)-1-(6-(2,5-dimethyl-1H-pyrrol-1-yl)pyridazin-3-yl)hexahydro-1H-pyrrolo[2,3-c]pyridin-6(2H)-yl)methanone], the IC50 on hOX1R and on human orexin-2 receptor was 10 µM in each case.

Regarding `COC(=O)c1ccc(N2CC[C@@H]3CCN(C(=O)c4ccccc4-n4nccn4)C[C@@H]32)nn1` [Example A12, methyl 6-((3aR, 7aR)-6-(2-(2H-1,2,3-triazol-2-yl)benzoyl)octahydro-1H-pyrrolo[2,3-c]pyridin-1-yl)pyridazine-3-carboxylate], the IC50 on hOX1R and at human orexin-2 receptor was not below 10 µM each time.

For the compound `O=C(c1ccccc1-n1nccn1)N1CC[C@H]2CCN(c3ncnc4scnc34)[C@H]2C1` [Example A13, (2-(2H-1,2,3-triazol-2-yl)phenyl)((3aR, 7aR)-1-(thiazolo[5,4-d]pyrimidin-7-yl)hexahydro-1H-pyrrolo[2,3-c]pyridin-6(2H)-yl)methanone], the IC50 on hOX1R and at human orexin-2 receptor was not below 10 µM each time.

Take `N#Cc1cc(Cl)ncc1N1CC[C@@H]2CCN(C(=O)c3ccccc3-n3nccn3)C[C@@H]21` [Example A14, 5-((3aR, 7aR)-6-(2-(2H-1,2,3-triazol-2-yl)benzoyl)octahydro-1H-pyrrolo[2,3-c]pyridin-1-yl)-2-chloroisonicotinonitrile]: the IC50 on hOX1R and on human orexin-2 receptor was not below 10 µM each time.

As for `Cc1c(C#N)ccnc1N1CC[C@@H]2CCN(C(=O)c3ccccc3-n3nccn3)C[C@@H]21` [Example A15, 2-(cis-6-(2-(2H-1,2,3-triazol-2-yl)benzoyl)ocathydro-1H-pyrrolo[2,3-c]pyridin-1-yl)-3-methylisonicotinonitrile], the IC50 at hOX1R was not below 10 µM; at human orexin-2 receptor it was 0.0848 µM.

As to `CN(C)c1ccnc(N2CC[C@@H]3CCN(C(=O)c4ccccc4-n4nccn4)C[C@@H]32)c1C#N` [Example A17, 4-(dimethylamino)-2-[(3aR, 7aR)-6-{[2-(2H-1,2,3-triazol-2-yl)phenyl]carbonyl}octahydro-1H-pyrrolo[2,3-c]pyridin-1-yl]pyridine-3-carbonitrile], the IC50 at hOX1R is not below 10 µM; at human orexin-2 receptor it was 0.0698 µM.

Turning to `CN(C)c1cc(Cl)nc(N2CC[C@@H]3CCN(C(=O)c4ccccc4-n4nccn4)C[C@@H]32)n1` [Example A18, 6-chloro-N,N-dimethyl-2-[(3aR, 7aR)-6-{[2-(2H-1,2,3-triazol-2-yl)phenyl]carbonyl}octahydro-1H-pyrrolo[2,3-c]pyridin-1-yl]pyrimidin-4-amine], the IC50 at hOX1R was found to be 3.24 µM; at human orexin-2 receptor, 0.13 µM.

On to `N#Cc1ccnc(N2CC[C@@H]3CCN(C(=O)c4ccccc4-n4nccn4)C[C@@H]32)c1Cl` [Example A19, 3-chloro-2-[(3aR, 7aR)-6-{[2-(2H-1,2,3-triazol-2-yl)phenyl]carbonyl}octahydro-1H-pyrrolo[2,3-c]pyridin-1-yl]pyridine-4-carbonitrile], for which the IC50 at hOX1R was not below 10 µM; on human orexin-2 receptor, 0.0955 µM.

For the compound `O=C(c1ccccc1-n1nccn1)N1CC[C@H]2CCN(c3cc(C(F)(F)F)ccn3)[C@H]2C1` [Example A20, (3aR, 7aR)-6-{[2-(2H-1,2,3-triazol-2-yl)phenyl]carbonyl}-1-[4-(trifluoromethyl)pyridin-2-yl]octahydro-1H-pyrrolo[2,3-c]pyridine], the IC50 came to 3.96 µM at hOX1R and 0.0665 µM at human orexin-2 receptor.

(Values after patent publication US9938276B2, “6,5-bicyclic octahydropyrrolopyridine orexin receptor antagonists” (Merck Sharp & Dohme Corp., priority 2014, dated 2018).)
